This is an account of results in patent US20110287069A1, “SOLID ORAL FORMULATIONS OF A PYRIDOPYRIMIDINONE” (priority 2009, published 2011).

The nature of series [1]: solubility and dissolution rate in aqueous media. In kind it is physicochemical. The text has this:
Even at a lower pH of 1, the dissolution rate of (R)-2-amino-7-[4-fluoro-2-(6-methoxy-pyridin-2-yl)-phenyl]-4-methyl-7,8-dihydro-6H-pyrido[4,3-d]pyrimidin-5-one is too slow. The present inventors have discovered that, when (R)-2-amino-7-[4-fluoro-2-(6-methoxy-pyridin-2-yl)-phenyl]-4-methyl-7,8-dihydro-6H-pyrido[4,3-d]pyrimidin-5-one is in the presence of a surfactant or an acid, the problems of a low solubility and a slow dissolution rate are overcome, resulting in (R)-2-amino-7-[4-fluoro-2-(6-methoxy-pyridin-2-yl)-phenyl]-4-methyl-7,8-dihydro-6H-pyrido[4,3-d]pyrimidin-5-one being soluble in aqueous solution and a dissolution rate that is unexpectedly faster and higher.

The nature of series [2]: particle size by laser light diffraction. The format is physicochemical. The settings on record: micronized, screened through #25 screen. The source says:
(R)-2-Amino-7-[4-fluoro-2-(6-methoxy-pyridin-2-yl)-phenyl]-4-methyl-7,8-dihydro-6H-pyrido[4,3-d]pyrimidin-5-one was micronized and screened through a #25 screen to a D average particle size of about 2 microns, with laser light diffraction yielding the following results: D(10) 0.78 μm, D(50) 2.18 μm, and D(90) 3.95 μm. The micronized (R)-2-amino-7-[4-fluoro-2-(6-methoxy-pyridin-2-yl)-phenyl]-4-methyl-7,8-dihydro-6H-pyrido[4,3-d]pyrimidin-5-one was then screened and added to a mixing bin along with the succinic acid and part A (50%) of the microcrystalline cellulose. The contents in the mixing bin were mixed for 150 revolutions, screened through a #40 screen and combine with a screened (#40 screen) mixture of AEROSIL 200, crospovidone, and the remaining other part B (50%) of the microcrystalline cellulose. This combination was mixed for 250 revolutions and screened through a #40 screen, and then combine with a first frozen and then milled mixture of vitamin E TPGS (screen no. 0063 using a Fitz mill) and magnesium stearate that was passed through at #30 mesh, to form a final combination, which was then blended together for 150 revolutions and encapsulated in a hard gelatin capsule using an encapsulation machine.

Structures are written as SMILES.

As to `COc1cccc(-c2cc(F)ccc2[C@H]2Cc3nc(N)nc(C)c3C(=O)N2)n1` [(R)-2-amino-7-[4-fluoro-2-(6-methoxy-pyridin-2-yl)-phenyl]-4-methyl-7,8-dihydro-6H-pyrido[4,3-d]pyrimidin-5-one], the solubility result in series [1] (aqueous media with a pH above 3) is on record as “very low solubility”. Also, the dissolution rate entry in series [1] (pH of 1) was “too slow”. Further, in series [2], the “D(10) particle size” value is 0.78 μm, the “D(50) particle size” value is on record as 2.18 μm and the “D(90) particle size” value was found to be 3.95 μm.
